US4975531A, “Sakyomicin E and the derivatives thereof, a process for the preparation thereof and the use thereof” (Behringwerke Aktiengesellschaft, priority 1988, dated 1990)

Experiments:
A 549 cells = test: Proliferation test (MTT assay), A 549; type: cell-based, human; settings: A 549, MTT, 72 hours
Procedure: (§1) The cytotoxic activity of the compounds according to the invention was measured in two different in vitro test systems.
(§2) 1. Proliferation test (MTT assay)
(§3) In this test system, the number of live or dead cells after incubation with the test substance for 3 days is measured by means of the NADP-dependent reduction of a colorless substrate to give a deep red-colored final product, which occurs only in live cells.
(§4) Control experiments contain merely growth medium in place of the test substance. Quadruplicate determinations were set up for each test substance and for the controls. After incubation for 65 hours, 50 μl of an MTT solution (2.5 mg/ml in phosphate buffered saline) are added. In the presence of live cells MTT is reduced to a dark-red insoluble formazan pigment. […] The insoluble pigment is dissolved by addition of 100 μl of DMSO, and the extinction of the solution produced in this way is subsequently measured for each well in a Multiscan photometer 340 CC from Flow at a wavelength of 492 nm.

HT 29 cells = test: Proliferation test (MTT assay), HT 29; type: cell-based, human; settings: HT 29, MTT, 72 hours
Procedure: as §1, §2, §3, §4

L1210 cells = test: Proliferation test (MTT assay), L1210; type: cell-based, murine; settings: 72 hours
Procedure: as §1, §2, §3, §4

tumor cell colonies = test: Stem Cell Test (inhibition of tumor cell colony formation in soft agar); type: cell-based; settings: cell line not given; for IC50 Cont. incubation (colony formation in soft agar): continuous incubation
Procedure: as §1
This test system examines the ability of the test substance to inhibit the formation of tumor cell colonies in soft agar. The test was carried out by the method described by Hamburger and Salmon, with the modifications described below. Conditioned medium was replaced by McCoy 5A medium. […] The cells were incubated with various concentrations of the test substance at 37° C. for 1 hour. The cells were then washed twice with McCoy 5A medium and then plated out as the upper layer in a two-layer agar system in accordance with the Hamburger and Salmon method. Additional parallel experiments were carried out using a continuous incubation time, in which case various concentrations of the test substance were mixed with the upper agar layer before plating out the cells.
After this time, colonies with a diameter of (greater than) 60 μm were counted using an image analysis system (FAS II, Bausch and Lomb).
The IC50 for continuous and one-hour incubation was determined from the dose-effect plot (Tab. 2).

E. coli = test: antibacterial effect in vitro, agar plate diffusion test, E. coli; type: cell-based; settings: agar plate diffusion test (10 μl/test disk 6 mm in diameter)
Procedure: (§5) Examples of various organisms which emerge as sensitive to an inhibitory concentration of greater than 10 μg/ml are: E. coli, Staph. aureus, Strep. faecalis.

Strep. faecalis = test: antibacterial effect in vitro, agar plate diffusion test, Strep. faecalis; type: cell-based; settings: agar plate diffusion test (10 μl/test disk 6 mm in diameter)
Procedure: as §5

stability = type: physicochemical
[1] = tested on: Gram-positive and Gram-negative bacteria; test: antibacterial effect in vitro against Gram-positive and Gram-negative bacteria, agar plate diffusion test; type: cell-based
Procedure: as §5

solubility = type: physicochemical
[2] = tested on: human and animal tumor cells; test: tumor-inhibiting effect in vitro; type: cell-based
Staph. aureus = test: antibacterial effect in vitro, agar plate diffusion test, Staph. aureus; type: cell-based; settings: agar plate diffusion test (10 μl/test disk 6 mm in diameter)
Procedure: as §5

Substance | IC50 A 549 (concentration which just kills 50% of the cells) (A 549 cells) [µg/mL] | IC50 HT 29 (concentration which just kills 50% of the cells) (HT 29 cells) [µg/mL] | IC50 L1210 (concentration which just kills 50% of the cells) (L1210 cells) [µg/mL] | IC50 1 h incubation (colony formation in soft agar) (tumor cell colonies) | IC50 Cont. incubation (colony formation in soft agar) (tumor cell colonies) [µg/mL] | inhibitory concentration, E. coli (E. coli) | inhibitory concentration, Strep. faecalis (Strep. faecalis) | stability in solution (stability; in solution in the pH range from 3 to 9, especially from 5 to 8) | stability in the solid state (stability; solid state) | antibacterial effect against Gram-positive and Gram-negative bacteria [1] | solubility in alkanes (solubility; alkanes) | solubility in ethyl acetate, methanol, acetone, DMSO and chloroform (solubility; ethyl acetate, methanol, acetone, DMSO and chloroform) | tumor-inhibiting effect in vitro [2] | inhibitory concentration, Staph. aureus (Staph. aureus)
2,8,4'-tri-O-acetylsakyomicin E | 0.37 | 0.11 | 0.29 | above 1.0 μg/ml | 0.30 | – | – | – | – | – | – | – | – | –
sakyomicin E | 0.30 | 0.08 | 0.50 | 3.0 µg/mL | 0.24 | greater than 10 μg/ml | greater than 10 μg/ml | stable | stable | exhibits an antibacterial effect | insoluble or only very slightly soluble | readily soluble | tumor-inhibiting effect | greater than 10 μg/ml
